According to patent US7902373B2 (Pfizer Inc, priority 2006, dated 2011):

target: human recombinant H-PGDS (Homo sapiens, UniProt O60760); assay: Fluorescence intensity h-PGDS TBA enzyme assay; assay type: biochemical; settings: Examples up to 622 (and 3a, 3b)
Sequence (O60760 whole entry): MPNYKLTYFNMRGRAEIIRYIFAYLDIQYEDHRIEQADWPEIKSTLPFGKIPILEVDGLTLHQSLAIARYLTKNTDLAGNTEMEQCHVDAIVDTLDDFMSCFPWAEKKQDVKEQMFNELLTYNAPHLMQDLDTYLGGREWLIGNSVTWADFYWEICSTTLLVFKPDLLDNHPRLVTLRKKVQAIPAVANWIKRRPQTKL

SMILES	IC50
O=C(NC1CCN(c2ncc3ccccc3n2)CC1)c1ccc(-c2cccc(F)c2)nc1 [Example 166, 6-(3-Fluorophenyl)-N-(1-quinazolin-2-ylpiperidin-4-yl)nicotinamide]	3.44 nM
COC(=O)c1cnc(N2CCC(NC(=O)c3ccc(-c4cccc(F)c4)nc3)CC2)cn1 [Example 167, Methyl 5-[4-({[6-(3-fluorophenyl)pyridin-3-yl]carbonyl}amino)piperidin-1-yl]pyrazine-2-carboxylate]	3.13 nM
Cc1cc(NC(=O)c2cccnc2N2CCC(NC(=O)c3ccc(-c4cccc(F)c4)nc3)CC2)no1 [Example 168, 2-[4-({[6-(3-Fluorophenyl)pyridin-3-yl]carbonyl}amino)piperidin-1-yl]-N-(5-methylisoxazol-3-yl)nicotinamide]	2.53 nM
CCc1cnc(CC)c(N2CCC(NC(=O)c3ccc(-c4cccc(F)c4)nc3)CC2)n1 [Example 169, N-[1-(3,6-Diethylpyrazin-2-yl)piperidin-4-yl]-6-(3-fluorophenyl)nicotinamide]	23.2 nM
NC(=O)c1cc2c(nc1N1CCC(NC(=O)c3ccc(-c4cccc(F)c4)nc3)CC1)CCC2 [Example 170, 2-[4-({[6-(3-Fluorophenyl)pyridin-3-yl]carbonyl}amino)piperidin-1-yl]-6,7-dihydro-5H-cyclopenta[b]pyridine-3-carboxamide]	1.77 nM
O=C(NC1CCN(c2nccc(-c3cccc(F)c3)n2)CC1)c1ccc(-c2cccc(F)c2)nc1 [Example 172, 6-(3-Fluorophenyl)-N-{1-[4-(3-fluorophenyl)pyrimidin-2-yl]piperidin-4-yl}nicotinamide]	35 nM
COc1cc2ncc(N3CCC(NC(=O)c4ccc(-c5cccc(F)c5)nc4)CC3)nc2cc1OC [Example 173, N-[1-(6,7-Dimethoxyquinoxalin-2-yl)piperidin-4-yl]-6-(3-fluorophenyl)nicotinamide]	16 nM
O=C(NC1CCN(c2ncc3ccc(F)cc3n2)CC1)c1ccc(-c2cccc(F)c2)nc1 [Example 174, 6-(3-Fluorophenyl)-N-[1-(7-fluoroquinazolin-2-yl)piperidin-4-yl]nicotinamide]	8.97 nM
Cc1nc(N2CCC(NC(=O)c3ccc(-c4cccc(F)c4)nc3)CC2)ccc1C#N [Example 175, N-[1-(5-Cyano-6-methylpyridin-2-yl)piperidin-4-yl]-6-(3-fluorophenyl)nicotinamide]	5.4 nM
COc1cccc(-c2ccnc(N3CCC(NC(=O)c4ccc(-c5cccc(F)c5)nc4)CC3)n2)c1 [Example 177, 6-(3-Fluorophenyl)-N-{1-[4-(3-methoxyphenyl)pyrimidin-2-yl]piperidin-4-yl}nicotinamide]	68.4 nM
CCOc1cc(CN2CCC(NC(=O)c3ccc(-c4cccc(F)c4)nc3)CC2)ccc1O [Example 179, N-(1-(3-Ethoxy-4-hydroxybenzyl)piperidin-4-yl)-6-(3-fluorophenyl)nicotinamide]	2.26 nM
O=C(NC1CCN(Cc2cccc(-c3ncccn3)c2)CC1)c1ccc(-c2cccc(F)c2)nc1 [Example 181, 6-(3-Fluorophenyl)-N-[1-(3-pyrimidin-2-ylbenzyl)piperidin-4-yl]nicotinamide]	3.4 nM
COc1cc(CN2CCC(NC(=O)c3ccc(-c4cccc(F)c4)nc3)CC2)ccc1OC(C)C [Example 184, 6-(3-Fluorophenyl)-N-[1-(4-isopropoxy-3-methoxybenzyl)piperidin-4-yl]nicotinamide]	3.67 nM
CCn1cc(CN2CCC(NC(=O)c3ccc(-c4cccc(F)c4)nc3)CC2)cn1 [Example 185, N-{1-[(1-Ethyl-1H-pyrazol-4-yl)methyl]piperidin-4-yl}-6-(3-fluorophenyl)nicotinamide]	11 nM
O=C(NC1CCN(CC2CCC=CO2)CC1)c1ccc(-c2cccc(F)c2)nc1 (stereo not drawn) [Example 186, N-[1-(3,4-Dihydro-2H-pyran-2-ylmethyl)piperidin-4-yl]-6-(3-fluorophenyl)nicotinamide]	1.79 nM
O=C(NC1CCN(Cc2c[nH]nc2-c2ccc(F)cc2)CC1)c1ccc(-c2cccc(F)c2)nc1 [Example 187, 6-(3-Fluorophenyl)-N-(1-{[3-(4-fluorophenyl)-1H-pyrazol-4-yl]methyl}piperidin-4-yl)nicotinamide]	2.59 nM
O=C(NC1CCN(Cc2cccc(-c3ccccn3)c2)CC1)c1ccc(-c2cccc(F)c2)nc1 [Example 188, 6-(3-Fluorophenyl)-N-[1-(3-pyridin-2-ylbenzyl)piperidin-4-yl]nicotinamide]	2.25 nM
O=C(NC1CCN(Cc2c[nH]cn2)CC1)c1ccc(-c2cccc(F)c2)nc1 [Example 190, 6-(3-Fluorophenyl)-N-[1-(1H-imidazol-5-ylmethyl)piperidin-4-yl]nicotinamide]	1.83 nM
O=C(CN1CCC(NC(=O)c2ccc(-c3cccc(F)c3)nc2)CC1)c1ccccc1 [Example 194, 6-(3-Fluorophenyl)-N-[1-(2-oxo-2-phenylethyl)piperidin-4-yl]nicotinamide]	3.5 nM
CCCCc1nc(CN2CCC(NC(=O)c3ccc(-c4cccc(F)c4)nc3)CC2)c[nH]1 [Example 199, N-{1-[(2-Butyl-1H-imidazol-4-yl)methyl]piperidin-4-yl}-6-(3-fluorophenyl)nicotinamide]	2.7 nM
O=C(NC1CCN(Cc2ccc3c(c2)OCCCO3)CC1)c1ccc(-c2cccc(F)c2)nc1 [Example 200, N-[1-(3,4-Dihydro-2H-15-benzodioxepin-7-ylmethyl)piperidin-4-yl]-6-(3-fluorophenyl)nicotinamide]	1.61 nM
O=C(NC1CCN(Cc2ccc(-c3ccccn3)cc2)CC1)c1ccc(-c2cccc(F)c2)nc1 [Example 201, 6-(3-Fluorophenyl)-N-[1-(4-pyridin-2-ylbenzyl)piperidin-4-yl]nicotinamide]	1.93 nM

These reach a lower IC50. Values come first.

IC50	SMILES
0.422 nM	O=C(NC1CCN(c2ccc(C(=O)NCCN3CCNC3=O)nn2)CC1)c1ccc(-c2cccc(F)c2)nc1 [Example 164, 6-[4-({[6-(3-Fluorophenyl)pyridin-3-yl]carbonyl}amino)piperidin-1-yl]-N-[2-(2-oxoimidazolidin-1-yl)ethyl]pyridazine-3-carboxamide]
1.16 nM	O=C(NC1CCN(c2ncccc2C(=O)N2CCCC2)CC1)c1ccc(-c2cccc(F)c2)nc1 [Example 165, 6-(3-Fluorophenyl)-N-{1-[3-(pyrrolidin-1-ylcarbonyl)pyridin-2-yl]piperidin-4-yl}nicotinamide]
1.41 nM	O=C(NC1CCN(c2ncc3cccnc3n2)CC1)c1ccc(-c2cccc(F)c2)nc1 [Example 171, 6-(3-Fluorophenyl)-N-(1-pyrido[2,3-d]pyrimidin-2-ylpiperidin-4-yl)nicotinamide]
0.759 nM	Cc1nc(N)c2nc(N3CCC(NC(=O)c4ccc(-c5cccc(F)c5)nc4)CC3)cnc2n1 [Example 176, N-[1-(4-Amino-2-methylpteridin-6-yl)piperidin-4-yl]-6-(3-fluorophenyl)nicotinamide]
0.735 nM	COc1ccc2ncnc(N3CCC(NC(=O)c4ccc(-c5cccc(F)c5)nc4)CC3)c2c1 [Example 178, 6-(3-Fluorophenyl)-N-[1-(6-methoxyquinazolin-4-yl)piperidin-4-yl]nicotinamide]
0.372 nM	Cc1cn(CCN2CCC(NC(=O)c3ccc(-c4cccc(F)c4)nc3)CC2)c(=O)[nH]c1=O [Example 180, 6-(3-Fluorophenyl)-N-{1-[2-(5-methyl-2,4-dioxo-34-dihydropyrimidin-1(2H)-yl)ethyl]piperidin-4-yl}nicotinamide]
0.424 nM	O=C(NC1CCN(Cc2c[nH]nc2-c2ccccc2)CC1)c1ccc(-c2cccc(F)c2)nc1 [Example 182, 6-(3-Fluorophenyl)-N-{1-[(3-phenyl-1H-pyrazol-4-yl)methyl]piperidin-4-yl}nicotinamide]
1.12 nM	O=C(NC1CCN(Cc2c[nH]c3cc(F)ccc23)CC1)c1ccc(-c2cccc(F)c2)nc1 [Example 183, N-{1-[(6-Fluoro-1H-indol-3-yl)methyl]piperidin-4-yl}-6-(3-fluorophenyl)nicotinamide]
0.502 nM	O=C(NC1CCN(Cc2ccnc3ccccc23)CC1)c1ccc(-c2cccc(F)c2)nc1 [Example 189, 6-(3-Fluorophenyl)-N-[1-(quinolin-4-ylmethyl)piperidin-4-yl]nicotinamide]
0.171 nM	Cn1cc(Cl)c(CN2CCC(NC(=O)c3ccc(-c4cccc(F)c4)nc3)CC2)n1 [Example 191, N-{1-[(4-Chloro-1-methyl-1H-pyrazol-3-yl)methyl]piperidin-4-yl}-6-(3-fluorophenyl)nicotinamide]
0.701 nM	COc1cc(CN2CCC(NC(=O)c3ccc(-c4cccc(F)c4)nc3)CC2)ccc1F [Example 192, N-[1-(4-Fluoro-3-methoxybenzyl)piperidin-4-yl]-6-(3-fluorophenyl)nicotinamide]
0.768 nM	O=C(NC1CCN(Cc2ccc(F)c(F)c2)CC1)c1ccc(-c2cccc(F)c2)nc1 [Example 193, N-[1-(3,4-difluorobenzyl)piperidin-4-yl]-6-(3-fluorophenyl)nicotinamide]
0.194 nM	Cn1nc(-c2ccccc2)c(CN2CCC(NC(=O)c3ccc(-c4cccc(F)c4)nc3)CC2)c1Cl [Example 195, N-{1-[(5-Chloro-1-methyl-3-phenyl-1H-pyrazol-4-yl)methyl]piperidin-4-yl}-6-(3-fluorophenyl)nicotinamide]
1.35 nM	Cn1cc(CN2CCC(NC(=O)c3ccc(-c4cccc(F)c4)nc3)CC2)cn1 [Example 196, 6-(3-Fluorophenyl)-N-{1-[(1-methyl-1H-pyrazol-4-yl)methyl]piperidin-4-yl}nicotinamide]
0.578 nM	O=C(NC1CCN(Cc2cccc3cccnc23)CC1)c1ccc(-c2cccc(F)c2)nc1 [Example 197, 6-(3-Fluorophenyl)-N-[1-(quinolin-8-ylmethyl)piperidin-4-yl]nicotinamide]
1.04 nM	O=C(NC1CCN(Cc2cccc(-c3cnccn3)c2)CC1)c1ccc(-c2cccc(F)c2)nc1 [Example 198, 6-(3-Fluorophenyl)-N-[1-(3-pyrazin-2-ylbenzyl)piperidin-4-yl]nicotinamide]
1.17 nM	Cc1ccc(CN2CCC(NC(=O)c3ccc(-c4cccc(F)c4)nc3)CC2)cc1F [Example 202, N-[1-(3-Fluoro-4-methylbenzyl)piperidin-4-yl]-6-(3-fluorophenyl)nicotinamide]
